This is an account of results in patent US8765773B2, “Substituted hydroxamic acids and uses thereof” (Millennium Pharmaceuticals, Inc., priority 2010, dated 2014).

The test has as its target T1, purified human HDAC6 (Homo sapiens, UniProt Q9UBN7).
T1 construct: purchased BPS Bioscience 5006
T1 sequence (Q9UBN7 1-1215): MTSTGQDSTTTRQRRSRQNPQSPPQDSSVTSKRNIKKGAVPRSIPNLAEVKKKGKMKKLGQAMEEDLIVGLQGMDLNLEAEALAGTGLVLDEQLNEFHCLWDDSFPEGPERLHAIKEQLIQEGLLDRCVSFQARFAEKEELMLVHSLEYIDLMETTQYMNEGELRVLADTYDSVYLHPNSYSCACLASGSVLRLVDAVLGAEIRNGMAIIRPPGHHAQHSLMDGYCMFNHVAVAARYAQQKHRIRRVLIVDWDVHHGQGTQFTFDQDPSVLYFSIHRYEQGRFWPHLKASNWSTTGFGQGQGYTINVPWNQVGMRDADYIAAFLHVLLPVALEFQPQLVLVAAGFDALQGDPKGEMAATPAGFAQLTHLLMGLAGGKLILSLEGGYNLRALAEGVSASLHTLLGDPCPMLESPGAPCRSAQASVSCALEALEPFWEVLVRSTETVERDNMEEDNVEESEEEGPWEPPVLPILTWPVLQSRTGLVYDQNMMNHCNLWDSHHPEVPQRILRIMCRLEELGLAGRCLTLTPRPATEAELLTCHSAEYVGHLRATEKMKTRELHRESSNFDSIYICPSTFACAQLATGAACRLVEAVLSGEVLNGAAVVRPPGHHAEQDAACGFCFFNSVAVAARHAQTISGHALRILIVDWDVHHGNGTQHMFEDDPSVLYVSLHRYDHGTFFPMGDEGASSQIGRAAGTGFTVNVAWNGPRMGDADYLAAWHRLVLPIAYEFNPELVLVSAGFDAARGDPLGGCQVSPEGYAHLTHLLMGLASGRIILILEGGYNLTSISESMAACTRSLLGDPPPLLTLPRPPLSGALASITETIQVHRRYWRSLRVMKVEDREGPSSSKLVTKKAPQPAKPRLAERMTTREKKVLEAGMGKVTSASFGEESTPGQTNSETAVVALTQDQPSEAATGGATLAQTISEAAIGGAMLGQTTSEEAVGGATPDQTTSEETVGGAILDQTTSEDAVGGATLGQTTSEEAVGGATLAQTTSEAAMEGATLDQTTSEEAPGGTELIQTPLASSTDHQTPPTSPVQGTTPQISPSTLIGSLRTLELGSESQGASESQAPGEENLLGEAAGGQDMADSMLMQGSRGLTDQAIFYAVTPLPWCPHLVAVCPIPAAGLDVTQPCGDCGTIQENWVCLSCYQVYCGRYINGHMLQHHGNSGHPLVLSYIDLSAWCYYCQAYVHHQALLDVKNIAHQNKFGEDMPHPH
The test can be described thus: HDAC6 Enzyme Assay. In kind it is biochemical. Particulars: compound concentration 0.37 μM, read-out: Percent Inhibition. In a few lines:
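Readout is AMC fluorescence (Ex 340 nm, Em 460 nm) after trypsin cleavage of the deacetylated Ac-Arg-Gly-Lys(Ac)-AMC product. Reaction: purified human HDAC6, compound or vehicle, 1 hour, 30° C, quenched by trichostatin A. Single-concentration percent inhibition or IC50 calculated versus DMSO-treated samples.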
Turning to `COc1ccncc1-c1nc2cc(C(=O)NO)ccc2c(=O)[nH]1` [Compound I-410, N-hydroxy-2-(4-methoxypyridin-3-yl)-4-oxo-3,4-dihydroquinazoline-7-carboxamide], the inhibition – broadly, how much of the control response was suppressed – at 0.37 µM was determined as 68.1%. The value for `O=C(NO)c1ccc2c(=O)[nH]c(Cc3ccccc3F)nc2c1` [Compound I-411, 2-(2-fluorobenzyl)-N-hydroxy-4-oxo-3,4-dihydroquinazoline-7-carboxamide] was 85.1%; that for `Cc1ccc(CCc2nc3cc(C(=O)NO)ccc3c(=O)[nH]2)o1` [Compound I-412, N-hydroxy-2-[2-(5-methyl-2-furyl)ethyl]-4-oxo-3,4-dihydroquinazoline-7-carboxamide] was 93%; that for `CC(C)(c1ccccc1)n1cnc2ccc(C(=O)NO)cc2c1=O` [Compound I-413, N-hydroxy-3-(1-methyl-1-phenylethyl)-4-oxo-3,4-dihydroquinazoline-6-carboxamide] was 94.1%. In the case of `O=C(NO)c1ccc2c(=O)[nH]c(-c3ccccc3Cl)nc2c1` [Compound I-414, 2-(2-chlorophenyl)-N-hydroxy-4-oxo-3,4-dihydroquinazoline-7-carboxamide], the inhibition at 0.37 µM turned out to be 95.4%. The value for `Cn1c(-c2nc3cc(C(=O)NO)ccc3c(=O)[nH]2)cc2ccccc21` [Compound I-415, N-hydroxy-2-(1-methyl-1H-indol-2-yl)-4-oxo-3,4-dihydroquinazoline-7-carboxamide] was 79.9%.

Take `O=C(NO)c1ccc2c(=O)[nH]c(C3CCCCC3)nc2c1` [Compound I-416, 2-cyclohexyl-N-hydroxy-4-oxo-3,4-dihydroquinazoline-7-carboxamide]: the inhibition at 0.37 µM came to 90%. As to `Cc1ccc(Cc2nc3cc(C(=O)NO)ccc3c(=O)[nH]2)c(C)c1` [Compound I-417, 2-(2,4-dimethylbenzyl)-N-hydroxy-4-oxo-3,4-dihydroquinazoline-7-carboxamide], the inhibition at 0.37 µM stood at 56.7%. The value for `CNCc1cn(Cc2ccccc2)c(=O)c2cc(C(=O)NO)ccc12` [Compound I-418, 2-benzyl-N-hydroxy-4-[(methylamino)methyl]-1-oxo-1,2-dihydroisoquinoline-7-carboxamide] was 29.5%; that for `CN(C)Cc1cn(Cc2ccccc2)c(=O)c2cc(C(=O)NO)ccc12` [Compound I-419, 2-benzyl-4-[(dimethylamino)methyl]-N-hydroxy-1-oxo-1,2-dihydroisoquinoline-7-carboxamide] was 23.2%; that for `O=C(NO)c1ccc2c(=O)[nH]c(C3CCCC3)nc2c1` [Compound I-420, 2-cyclopentyl-N-hydroxy-4-oxo-3,4-dihydroquinazoline-7-carboxamide] was 85.3%.
